From patent publication US7816353B2 (Exelixis, Inc., priority 2003, dated 2010)

Experiments:
Assay type in all cases: biochemical
p70S6K = target: T1, p70S6K (Homo sapiens, UniProt P23443, T412E); assay: p70S6 Kinase Assay (Luciferase-Coupled Chemiluminescent Kinase assay, LCCA); details: human p70S6 kinase domain residues 1-421, T412E; 5 μM ATP; read-out: p70S6K IC50
T1 construct: human p70S6 kinase domain residues 1-421, containing a T412E mutation; made in house
Summary of the method: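 Luciferase-coupled chemiluminescence measured percent ATP remaining after the 2 h kinase reaction at ambient temperature, with ATP near the kinase's KM. Ten inhibitor concentrations were tested. IC50 was obtained from a Hill-equation fit.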

Akt1 = target: T2, Akt1 (Homo sapiens, UniProt P31749); assay: Akt1 Kinase Assay (Luciferase-Coupled Chemiluminescent Kinase assay, LCCA); details: human Akt1 kinase domain residues R144-A480, activated with PDK1; 1 μM ATP; read-out: Akt-1 IC50
T2 construct: made in house
T2 sequence (P31749 144-480): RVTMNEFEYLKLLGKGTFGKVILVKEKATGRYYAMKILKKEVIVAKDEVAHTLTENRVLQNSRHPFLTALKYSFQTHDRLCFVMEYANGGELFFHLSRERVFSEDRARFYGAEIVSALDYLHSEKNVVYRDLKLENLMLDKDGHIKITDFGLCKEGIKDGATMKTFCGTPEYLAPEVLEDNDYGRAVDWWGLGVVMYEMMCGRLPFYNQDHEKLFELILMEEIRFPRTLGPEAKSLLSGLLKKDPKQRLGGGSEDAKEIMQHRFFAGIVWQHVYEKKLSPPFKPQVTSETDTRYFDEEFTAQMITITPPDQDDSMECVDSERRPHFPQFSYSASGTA
Description: (§1) Kinase activity and compound inhibition are investigated using one or more of the three assay formats described below. The ATP concentrations for each assay are selected to be close to the Michaelis-Menten constant (KM) for each individual kinase. Dose-response experiments are performed at 10 different inhibitor concentrations in a 384-well plate format. The data are fitted to four-parameter equation (2) below; where Y is the observed signal, X is the inhibitor concentration, Min is the background signal in the absence of enzyme (0% enzyme activity), Max is the signal in the absence of inhibitor (100% enzyme activity), IC50 is the inhibitor concentration at 50% enzyme inhibition and H represents the empirical Hill's slope to measure the cooperativity. Typically H is close to unity. Y=Min+(Max−Min)/(1+(X/IC50)^H) Equation (2) p70S6 Kinase Assay
Biochemical activity of Akt1 kinase was assessed using a Luciferase-Coupled Chemiluminescent Kinase assay (LCCA) format. Kinase activity was measured as the percent ATP remaining following the kinase reaction. Remaining ATP was detected by luciferase-luciferin-coupled chemiluminescence. Specifically, the reaction was initiated by mixing test compounds, 1 μM ATP, 5 μM crosstide peptide and 1.3 nM Akt1 (baculovirus expressed human Akt1 kinase domain residues R144-A480, activated with PDK1) in a 20 uL assay buffer (20 mM Tris-HCL pH 7.5, 10 mM MgCl2, 0.01% Triton X-100, 1 mM DTT, 3 mM MnCl2). The mixture is incubated at ambient temperature for 3 hours after which 20 μL luciferase-luciferin mix is added and the chemiluminescent signal read using a Wallac Victor2 reader. The luciferase-luciferin mix consists of 50 mM HEPES, pH 7.8, 8.5 μg/mL oxalic acid (pH 7.8), 5 (or 50) mM DTT, 0.4% Triton X-100, 0.25 mg/mL coenzyme A, 63 uM AMP, 28 μg/mL luciferin and 40,000 units/mL luciferase.

PDK1 = target: T3, PDK1 (Homo sapiens, UniProt O15530); assay: PDK1 Kinase Assay (Luciferase-Coupled Chemiluminescent Kinase assay, LCCA); details: human PDK1 kinase domain residues M51-T359; 0.5 μM ATP; read-out: PDK-1 IC50
T3 construct: human PDK1 kinase domain residues M51-T359; made in house
T3 sequence (O15530 51-359): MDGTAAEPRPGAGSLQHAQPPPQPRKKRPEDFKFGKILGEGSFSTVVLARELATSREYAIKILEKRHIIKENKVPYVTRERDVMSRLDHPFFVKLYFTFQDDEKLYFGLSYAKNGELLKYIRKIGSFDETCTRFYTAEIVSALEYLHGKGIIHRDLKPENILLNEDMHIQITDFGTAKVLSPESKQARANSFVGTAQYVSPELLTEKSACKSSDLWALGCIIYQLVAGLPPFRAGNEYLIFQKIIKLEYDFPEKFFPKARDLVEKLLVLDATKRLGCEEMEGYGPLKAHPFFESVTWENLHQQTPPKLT
Description: as §1
Biochemical activity of PDK1 kinase was assessed using a Luciferase-Coupled Chemiluminescent Kinase assay (LCCA) format. Kinase activity was measured as the percent ATP remaining following the kinase reaction. Remaining ATP was detected by luciferase-luciferin-coupled chemiluminescence. Specifically, the reaction was initiated by mixing test compounds, 0.5 μM ATP, 0.6 μM PDKtide peptide and 6 nM PDK1 (baculovirus expressed human PDK1 kinase domain residues M51-T359) in a 20 uL assay buffer (20 mM Hepes pH 7.5, 1 mM CaCl2, 0.03% CHAPS, 2 mM DTT). The mixture is incubated at ambient temperature for 3 hours after which 20 μL luciferase-luciferin mix is added and the chemiluminescent signal read using a Wallac Victor2 reader. The luciferase-luciferin mix consists of 50 mM HEPES, pH 7.8, 8.5 μg/mL oxalic acid (pH 7.8), 5 (or 50) mM DTT, 0.4% Triton X-100, 0.25 mg/mL coenzyme A, 63 uM AMP, 28 μg/mL luciferin and 40,000 units/mL luciferase.

T1 sequence (P23443 1-421 T412E): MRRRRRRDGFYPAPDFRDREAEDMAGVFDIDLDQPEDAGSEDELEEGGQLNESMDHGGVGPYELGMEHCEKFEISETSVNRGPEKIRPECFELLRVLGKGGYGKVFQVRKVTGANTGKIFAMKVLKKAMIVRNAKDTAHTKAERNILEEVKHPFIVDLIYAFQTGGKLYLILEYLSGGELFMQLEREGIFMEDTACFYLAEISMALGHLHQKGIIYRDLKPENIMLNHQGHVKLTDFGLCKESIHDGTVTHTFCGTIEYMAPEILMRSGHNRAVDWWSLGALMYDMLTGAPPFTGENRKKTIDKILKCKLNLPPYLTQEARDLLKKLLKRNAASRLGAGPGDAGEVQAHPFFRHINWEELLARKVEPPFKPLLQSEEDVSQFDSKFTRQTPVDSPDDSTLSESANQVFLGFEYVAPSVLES

IC50 (p70S6K)	IC50 (Akt1)	IC50 (PDK1)	SMILES
< 50 nM	> 2000 nM	> 2000 nM	Cc1nc(OCC(=O)Nc2cccc(C(F)(F)F)c2)c(C#N)c(C)c1[N+](=O)[O-] [Example 1, 2-[(3-cyano-4,6-dimethyl-5-nitropyridin-2-yl)oxy]-N-[3-(trifluoromethyl)phenyl]acetamide]
50 to 500 nM	> 2000 nM	> 2000 nM	CSc1nc(N)nc(NCC(=O)Nc2cccc(C(F)(F)F)c2)c1C#N [Example 20, N^2-[2-amino-5-cyano-6-(methylthio)pyrimidin-4-yl]-N-[3-(trifluoromethyl)phenyl]glycinamide]
500 to 2000 nM	> 2000 nM	–	CSc1nc(N)nc(N[C@@H](CCCNC(N)=O)C(=O)Nc2cccc(C(F)(F)F)c2)c1C#N [Example 147, N~5~-(aminocarbonyl)-N~2~-[2-amino-5-cyano-6-(methylthio)pyrimidin-4-yl]-N-[3-(trifluoromethyl)phenyl]-L-omithinamide]
500 to 2000 nM	> 2000 nM	–	CCOc1nc(N)nc(N[C@@H](CCCN)C(=O)Nc2cccc(C(F)(F)F)c2)c1C#N [Example 148, N~2~-[2-amino-5-cyano-6-(ethyloxy)pyrimidin-4-yl]-N-[3-(trifluoromethyl)phenyl]-L-omithinamide]
> 2000 nM	> 2000 nM	–	CCOc1nc(N)nc(N[C@@H](C)C(=O)Nc2cc(C(=O)NCCN(C)C)cc(C(F)(F)F)c2)c1C#N [Example 160, 3-({N-[2-amino-5-cyano-6-(ethyloxy)pyrimidin-4-yl]-L-alanyl}amino)-N-[2-(dimethylamino)ethyl]-5-(trifluoromethyl)benzamide]
> 2000 nM	> 2000 nM	–	CCOc1nc(N)nc(N(C)[C@@H](C)C(=O)Nc2cccc(OC(F)(F)F)c2)c1C#N [Example 172, N~2~-[2-amino-5-cyano-6-(ethyloxy)pyrimidin-4-yl]-N~2~-methyl-N-{3-[(trifluoromethyl)oxy]phenyl}-L-alaninamide]
> 2000 nM	–	–	COC(=O)c1cc(NC(=O)[C@H](C)Nc2nc(N)nc(OC)c2C#N)cc(C(F)(F)F)c1 [Example 189, methyl 3-({N-[2-amino-5-cyano-6-(methyloxy)pyrimidin-4-yl]-L-alanyl}amino)-5-(trifluoromethyl)benzoate]
> 2000 nM	–	–	COc1nc(N)nc(N[C@@H](C)C(=O)Nc2cc(C(=O)NCCN(C)C)cc(C(F)(F)F)c2)c1C#N [Example 190, 3-({N-[2-amino-5-cyano-6-(methyloxy)pyrimidin-4-yl]-L-alanyl}amino)-N-[2-(dimethylamino)ethyl]-5-(trifluoromethyl)benzamide]
> 2000 nM	–	–	CSc1nc(N)nc(N[C@@H](CN2CCOCC2)C(=O)Nc2cccc(C(F)(F)F)c2)c1C#N [Example 191, N~2~-[2-amino-5-cyano-6-(methylthio)pyrimidin-4-yl]-3-morpholin-4-yl-N-[3-(trifluoromethyl)phenyl]-L-alaninamide]
> 2000 nM	–	–	COc1nc(N)nc(N[C@@H](CN2CCOCC2)C(=O)Nc2cccc(C(F)(F)F)c2)c1C#N [Example 192, N~2~-[2-amino-5-cyano-6-(methyloxy)pyrimidin-4-yl]-3-morpholin-4-yl-N-[3-(trifluoromethyl)phenyl]-L-alaninamide]
> 2000 nM	–	–	CCOc1nc(N)nc(N[C@@H](CN2CCOCC2)C(=O)Nc2cccc(C(F)(F)F)c2)c1C#N [Example 193, N~2~-[2-amino-5-cyano-6-(ethyloxy)pyrimidin-4-yl]-3-morpholin-4-yl-N-[3-(trifluoromethyl)phenyl]-L-alaninamide]
> 2000 nM	> 2000 nM	–	CCOc1nc(N)nc(N[C@@H](CCCNC(N)=O)C(=O)Nc2cccc(C(F)(F)F)c2)c1C#N [Example 194]
> 2000 nM	> 2000 nM	–	CSc1nc(N)nc(N[C@H](CCCCN)C(=O)Nc2cccc(C(F)(F)F)c2)c1C#N [Example 195]
> 2000 nM	> 2000 nM	–	CCOc1nc(N)nc(N[C@H](CCCCN)C(=O)Nc2cccc(C(F)(F)F)c2)c1C#N [Example 196, N~2~-[2-amino-5-cyano-6-(ethyloxy)pyrimidin-4-yl]-N-[3-(trifluoromethyl)phenyl]-D-lysinamide]
> 2000 nM	–	–	CCOc1nc(N)nc(N[C@@H](COC)C(=O)Nc2cccc(C(F)(F)F)c2)c1C#N [Example 197, N~2~-[2-amino-5-cyano-6-(ethyloxy)pyrimidin-4-yl]-O-methyl-N-[3-(trifluoromethyl)phenyl]-L-serinamide]
> 2000 nM	–	–	CSc1nc(N)nc(N[C@@H](CCCNS(C)(=O)=O)C(=O)Nc2cccc(C(F)(F)F)c2)c1C#N [Example 198, N~2~-[2-amino-5-cyano-6-(methylthio)pyrimidin-4-yl]-N~5~-(methylsulfonyl)-N-[3-(trifluoromethyl)phenyl]-L-ornithinamide]

More lines, now with the values behind:

SMILES	IC50 (p70S6K)	IC50 (Akt1)	IC50 (PDK1)
Nc1nc(Cl)cc(SCC(=O)Nc2cccc(C(F)(F)F)c2)n1	50 to 500 nM	> 2000 nM	–
CSc1cc(OCC(=O)Nc2cccc(C(F)(F)F)c2)nc(N)n1	< 50 nM	> 2000 nM	> 2000 nM
Nc1nc(NCC(=O)Nc2cccc(C(F)(F)F)c2)cc(N2CCOCC2)n1	< 50 nM	–	> 2000 nM
CSc1nc(N)nc(SCC(=O)Nc2ccc(C(F)(F)F)cn2)c1C#N [Example 4]	< 50 nM	> 2000 nM	> 2000 nM
CSc1cc(NCC(=O)Nc2cccc(C(F)(F)F)c2)nc(N)n1 [Example 5]	< 50 nM	> 2000 nM	> 2000 nM
CSc1nc(N)nc(SCC(=O)N(C)c2cccc(C(F)(F)F)c2)c1C#N [Example 16, 2-{(2-amino-5-cyano-6-(methylthio)pyrimidin-4-yl]thio}-N-methyl-N-[3-(trifluoromethyl)phenyl]acetamide]	50 to 500 nM	> 2000 nM	> 2000 nM
CSc1nc(N)nc(SCC(=O)Nc2nc3ccccc3s2)c1C#N [Example 23, 2-{[2-amino-5-cyano-6-(methylthio)pyrimidin-4-yl]thio}-N-1,3-benzothiazol-2-ylacetamide]	< 50 nM	> 2000 nM	–
Nc1nc(Cl)c(C=O)c(SCC(=O)Nc2cccc(C(F)(F)F)c2)n1 [Example 43, 2-[(2-amino-6-chloro-5-formylpyrimidin-4-yl)thio]-N-[3-(trifluoromethyl)phenyl]acetamide]	50 to 500 nM	> 2000 nM	–
CSc1ncc(C#N)c(NCC(=O)Nc2cccc(C(F)(F)F)c2)n1 [Example 100, N^2-[5-cyano-2-(methylthio)pyrimidin-4-yl]-N-[3-(trifluoromethyl)phenyl]glycinamide]	> 2000 nM	> 2000 nM	–
CSc1nc(N)nc(N(CC(=O)Nc2cccc(C(F)(F)F)c2)CC2CCOCC2)c1C#N [Example 101, N^2-[2-amino-5-cyano-6-(methylthio)pyrimidin-4-yl]-N^2-(tetrahydro-2H-pyran-4-ylmethyl)-N-[3-(trifluoromethyl)phenyl]glycinamide]	> 2000 nM	> 2000 nM	–
COC(=O)c1cc(NC(=O)[C@H](C)Nc2nc(N)nc(SC)c2C#N)cc(C(F)(F)F)c1 [Example 112, methyl 3-({N-[2-amino-5-cyano-6-(methylthio)pyrimidin-4-yl]-L-alanyl}amino)-5-(trifluoromethyl)benzoate]	> 2000 nM	> 2000 nM	–
